Measured values published in the supplement of paper PMC10307832.

Experiments:
Assay in all cases: relative viability (nuclei count vs DMSO), 5 days (fraction); higher = more cells survive
[1] = compound: Cc1ccc(-n2nc(C(C)(C)C)cc2NC(=O)Nc2ccc(OCCN3CCOCC3)c3ccccc23)cc1 [Doramapimod] + CS(=O)(=O)N1CCN(Cc2cc3nc(-c4cccc5[nH]ncc45)nc(N4CCOCC4)c3s2)CC1 [Pictilisib] (partner 1 µM)
Outline: (§1)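 After 5 days of treatment, lung cancer cells in 1536-well plates were fixed and stained in a single step (final 0.05% Triton X-100, 1% formaldehyde, 1 ug/ml Hoechst) and their nuclei counted on 4× images. Treatment had been applied by pin tool the day after seeding as one drug alone or as a fixed anchor-drug dose with five library-drug doses (not always all listed) in √10 steps. Relative viability is the nuclei count of treated wells divided by that of vehicle wells, and values are medians of duplicate plates.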

[2] = compound: Cc1ccc(-n2nc(C(C)(C)C)cc2NC(=O)Nc2ccc(OCCN3CCOCC3)c3ccccc23)cc1 [Doramapimod] + C[C@]1(O)C[C@@H](c2nc(-c3ccc4ccc(-c5ccccc5)nc4c3)c3c(N)nccn32)C1 [Linsitinib] (partner 1 µM)
Outline: as §1

[3] = compound: Cn1c(Nc2ccc(C(F)(F)F)cc2)nc2cc(Oc3ccnc(-c4ncc(C(F)(F)F)[nH]4)c3)ccc21 [RAF265] + Nc1nc2[nH]cc(CCc3ccc(C(=O)N[C@@H](CCC(=O)O)C(=O)O)cc3)c2c(=O)[nH]1 [Pemetrexed] (partner 0.2 µM)
Outline: as §1

[4] = compound: Cn1c(Nc2ccc(C(F)(F)F)cc2)nc2cc(Oc3ccnc(-c4ncc(C(F)(F)F)[nH]4)c3)ccc21 [RAF265] + CC(=O)c1c(C)c2cnc(Nc3ccc(N4CCNCC4)cn3)nc2n(C2CCCC2)c1=O [Palbociclib] (partner 0.5 µM)
Outline: as §1

In the case of HCC-827, the relative viability ([1]; first compound 0.02 µM) is reported as 1.15, the relative viability ([1]; first compound 0.06325 µM) is reported as 0.972 and the relative viability ([1]; first compound 0.2 µM) is reported as 1.06. The relative viability ([1]; first compound 0.6325 µM) was 0.933, the relative viability ([1]; first compound 2 µM) was 0.738 and the relative viability ([2]; first compound 0.02 µM) was 1. The relative viability ([2]; first compound 0.06325 µM) was 0.918, the relative viability ([2]; first compound 0.2 µM) was 0.952 and the relative viability ([2]; first compound 0.6325 µM) was 0.933. For the same cell line, the relative viability ([2]; first compound 2 µM) was 0.752, the relative viability ([3]; first compound 0.01 µM) was 0.281 and the relative viability ([3]; first compound 0.03162 µM) was 0.24. For the same cell line, the relative viability ([3]; first compound 0.1 µM) was 0.214, the relative viability ([3]; first compound 1 µM) was 0.278 and the relative viability ([4]; first compound 0.01 µM) was 0.462. For the same cell line, the relative viability ([4]; first compound 0.03162 µM) was 0.494, the relative viability ([4]; first compound 0.1 µM) was 0.489 and the relative viability ([4]; first compound 1 µM) was 0.395.
NCI-H650 gave a relative viability ([1]; first compound 0.02 µM) of 0.887, a relative viability ([1]; first compound 0.06325 µM) of 0.818 and a relative viability ([1]; first compound 0.2 µM) of 0.984. The relative viability ([1]; first compound 0.6325 µM) was 0.982, the relative viability ([1]; first compound 2 µM) was 0.859 and the relative viability ([2]; first compound 0.02 µM) was 0.93. For the same cell line, the relative viability ([2]; first compound 0.06325 µM) was 1.03, the relative viability ([2]; first compound 0.2 µM) was 1.08 and the relative viability ([2]; first compound 0.6325 µM) was 0.923. For the same cell line, the relative viability ([2]; first compound 2 µM) was 0.785, the relative viability ([3]; first compound 0.01 µM) was 0.96 and the relative viability ([3]; first compound 0.03162 µM) was 0.76. The relative viability ([3]; first compound 0.1 µM) was 0.734, the relative viability ([3]; first compound 0.3162 µM) was 0.573 and the relative viability ([3]; first compound 1 µM) was 0.505. It also gave a relative viability ([4]; first compound 0.01 µM) of 0.306, a relative viability ([4]; first compound 0.03162 µM) of 0.345 and a relative viability ([4]; first compound 0.1 µM) of 0.303. The relative viability ([4]; first compound 0.3162 µM) was 0.232 and the relative viability ([4]; first compound 1 µM) was 0.206.
CAL-12T showed a relative viability ([1]; first compound 0.02 µM) of 0.456, a relative viability ([1]; first compound 0.06325 µM) of 0.378 and a relative viability ([1]; first compound 0.2 µM) of 0.463. It also gave a relative viability ([1]; first compound 0.6325 µM) of 0.33, a relative viability ([1]; first compound 2 µM) of 0.392 and a relative viability ([2]; first compound 0.02 µM) of 0.806. For the same cell line, the relative viability ([2]; first compound 0.06325 µM) was 0.804, the relative viability ([2]; first compound 0.2 µM) was 0.745 and the relative viability ([2]; first compound 0.6325 µM) was 0.851. It also gave a relative viability ([2]; first compound 2 µM) of 0.627, a relative viability ([3]; first compound 0.01 µM) of 1.21 and a relative viability ([3]; first compound 0.03162 µM) of 0.925. It also gave a relative viability ([3]; first compound 0.1 µM) of 1.13, a relative viability ([3]; first compound 0.3162 µM) of 0.978 and a relative viability ([3]; first compound 1 µM) of 0.661. For the same cell line, the relative viability ([4]; first compound 0.01 µM) was 0.622, the relative viability ([4]; first compound 0.03162 µM) was 0.488 and the relative viability ([4]; first compound 0.1 µM) was 0.364. It also gave a relative viability ([4]; first compound 0.3162 µM) of 0.27 and a relative viability ([4]; first compound 1 µM) of 0.178.
For NCI-H1648, the relative viability ([3]; first compound 0.01 µM) was 0.758, the relative viability ([3]; first compound 0.03162 µM) was 0.66 and the relative viability ([3]; first compound 0.1 µM) was 0.771. For the same cell line, the relative viability ([3]; first compound 0.3162 µM) was 1.02, the relative viability ([3]; first compound 1 µM) was 0.65 and the relative viability ([4]; first compound 0.01 µM) was 0.287. For the same cell line, the relative viability ([4]; first compound 0.03162 µM) was 0.283, the relative viability ([4]; first compound 0.1 µM) was 0.266 and the relative viability ([4]; first compound 0.3162 µM) was 0.26. For the same cell line, the relative viability ([4]; first compound 1 µM) was 0.242.
Work on NCI-H522 yielded a relative viability ([3]; first compound 0.01 µM) of 0.922, a relative viability ([3]; first compound 0.03162 µM) of 1.15 and a relative viability ([3]; first compound 0.1 µM) of 1.09. The relative viability ([3]; first compound 0.3162 µM) was 1.13, the relative viability ([3]; first compound 1 µM) was 1 and the relative viability ([4]; first compound 0.01 µM) was 1.01. It also gave a relative viability ([4]; first compound 0.03162 µM) of 1.03, a relative viability ([4]; first compound 0.1 µM) of 1.26 and a relative viability ([4]; first compound 0.3162 µM) of 0.99. It also gave a relative viability ([4]; first compound 1 µM) of 0.863.
With IA-LM the relative viability ([1]; first compound 0.02 µM) was 0.176, the relative viability ([1]; first compound 0.06325 µM) was 0.257 and the relative viability ([1]; first compound 0.6325 µM) was 0.343. For the same cell line, the relative viability ([1]; first compound 2 µM) was 0.288, the relative viability ([2]; first compound 0.02 µM) was 0.498 and the relative viability ([2]; first compound 0.06325 µM) was 0.549. For the same cell line, the relative viability ([2]; first compound 0.2 µM) was 0.701, the relative viability ([2]; first compound 0.6325 µM) was 0.587 and the relative viability ([2]; first compound 2 µM) was 0.731.
With EPLC-272H the relative viability ([1]; first compound 0.02 µM) was 0.344, the relative viability ([1]; first compound 0.06325 µM) was 0.418 and the relative viability ([1]; first compound 0.2 µM) was 0.377. For the same cell line, the relative viability ([1]; first compound 0.6325 µM) was 0.296, the relative viability ([1]; first compound 2 µM) was 0.275 and the relative viability ([2]; first compound 0.02 µM) was 1.1. The relative viability ([2]; first compound 0.06325 µM) was 1.02, the relative viability ([2]; first compound 0.2 µM) was 1.07 and the relative viability ([2]; first compound 0.6325 µM) was 1.23. The relative viability ([2]; first compound 2 µM) was 1.01, the relative viability ([3]; first compound 0.01 µM) was 0.327 and the relative viability ([3]; first compound 0.03162 µM) was 0.319. It also gave a relative viability ([3]; first compound 0.1 µM) of 0.406, a relative viability ([3]; first compound 0.3162 µM) of 0.213 and a relative viability ([3]; first compound 1 µM) of 0.177. For the same cell line, the relative viability ([4]; first compound 0.01 µM) was 0.334, the relative viability ([4]; first compound 0.03162 µM) was 0.291 and the relative viability ([4]; first compound 0.1 µM) was 0.352. The relative viability ([4]; first compound 0.3162 µM) was 0.287 and the relative viability ([4]; first compound 1 µM) was 0.269.
Work on A-427 yielded a relative viability ([1]; first compound 0.02 µM) of 0.642, a relative viability ([1]; first compound 0.06325 µM) of 0.814 and a relative viability ([1]; first compound 0.2 µM) of 0.845. The relative viability ([1]; first compound 2 µM) was 0.676, the relative viability ([2]; first compound 0.02 µM) was 1.17 and the relative viability ([2]; first compound 0.06325 µM) was 1.21. It also gave a relative viability ([2]; first compound 0.2 µM) of 1.24, a relative viability ([2]; first compound 2 µM) of 1.16 and a relative viability ([3]; first compound 0.01 µM) of 1.06. The relative viability ([3]; first compound 0.03162 µM) was 0.939, the relative viability ([3]; first compound 0.1 µM) was 1.03 and the relative viability ([3]; first compound 0.3162 µM) was 0.678. For the same cell line, the relative viability ([3]; first compound 1 µM) was 0.468, the relative viability ([4]; first compound 0.01 µM) was 0.579 and the relative viability ([4]; first compound 0.03162 µM) was 0.488. For the same cell line, the relative viability ([4]; first compound 0.1 µM) was 0.541, the relative viability ([4]; first compound 0.3162 µM) was 0.436 and the relative viability ([4]; first compound 1 µM) was 0.238.
